Key:
QscR [1] = target: T1, QscR (Pseudomonas aeruginosa, UniProt G3XD77); test: QscR agonism, E. coli JLD271; format: cell-based; conditions: for Reduction in potency relative to OdDHL (1) in QscR: ratio of EC50 to that of OdDHL, QscR reporter; for QscR agonism, result in words: E. coli QscR reporter
LasR [2] = conditions: cited from earlier work
LasR [3] = target: T2, LasR (Pseudomonas aeruginosa, UniProt P25084); test: LasR agonism, E. coli JLD271; format: cell-based; conditions: for Loss in potency (EC50) relative to OdDHL (1) in LasR: ratio of EC50 to that of OdDHL, LasR reporter
T2 sequence (P25084 whole entry): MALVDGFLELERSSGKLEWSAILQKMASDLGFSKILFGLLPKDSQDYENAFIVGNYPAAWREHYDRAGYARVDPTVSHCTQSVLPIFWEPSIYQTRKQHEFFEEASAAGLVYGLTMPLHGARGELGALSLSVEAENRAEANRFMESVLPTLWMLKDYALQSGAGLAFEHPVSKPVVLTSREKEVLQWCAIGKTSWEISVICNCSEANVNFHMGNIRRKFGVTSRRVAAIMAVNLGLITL

QscR [4] = target: T1, QscR; test: QscR antagonism in competition with OdDHL, E. coli reporter assay; format: cell-based
LasR [5] = target: T2, LasR; test: LasR antagonism in competition with OdDHL, E. coli reporter assay; format: cell-based; conditions: dose response in competition against OdDHL (1)
QscR [6] = target: T1, QscR; conditions: cited from earlier work

| SMILES | Reduction in potency relative to OdDHL (1) in QscR (QscR [1]) | LasR agonism, result in words (earlier report) (LasR [2]) | Loss in potency (EC50) relative to OdDHL (1) in LasR (LasR [3]) | QscR agonism, result in words (QscR [1]) | further results |
| --- | --- | --- | --- | --- | --- |
| CCCCCCCCCC(=O)CC(=O)N[C@H]1CCSC1=O [Compound 3] | five-fold less potent | agonize LasR comparably to OdDHL | – | – | – |
| CCCCCCCCCC(=O)CC(=O)N[C@H]1CCNC1=O [Compound 4] | > 200 fold | – | 10–20 fold | – | Potency in LasR relative to OdDHL based on EC50 (earlier report) (LasR [2]; less potent than OdDHL): about 100 fold |
| CCCCCCCCCC(=O)CC(=O)N[C@H]1CCCC1=O [Compound 5] | ~ 55 fold | retained agonistic activity in LasR but was not nearly as potent as OdDHL | 10–20 fold | – | – |
| CCCCCCCCCC(=O)CC(=O)NC1CCCC1 [Compound 6] | 24 fold | some agonistic activity | 100 fold | – | – |
| CCCCCCCCCC(=O)CC(=O)N[C@H]1CCOC1 [Compound 7] | – | – | 600 fold | – | – |
| CCCCCCCCCC(=O)CC(=O)N[C@H]1CCO[C@@H]1O [Compound 8] | – | – | ~ 1200 fold | very weak QscR agonist | Concentration at which LasR is agonized (earlier report) (LasR [2]; only at very high concentrations): 400 µM |
| CCCCCCCCCC(=O)CC(=O)NCC1CCCO1 (centres unmarked) [Compound 9] | – | – | – | negligible activity | IC50 (QscR [4]): > 250 µM |
| CCCCCCCCCCCS(=O)(=O)N[C@H]1CCOC1=O [Compound 10] | – | – | – | weak agonistic activity | LasR agonism, result in words (LasR [3]; E. coli LasR reporter): inactive; LasR antagonism, result in words (LasR [5]): failed to antagonize LasR; LasR activity, result in words (earlier report) (LasR [2]): inactive; QscR activity, result in words (earlier report) (QscR [6]): mild agonist |
| CCCCCCCCCC(=O)CC(=O)O[C@H]1CCOC1=O [Compound 11] | – | – | – | – | IC50 (QscR [4]): > 250 µM |

Source: PMC6234094 (Bioorganic & medicinal chemistry, 2018)
